Reference: ChEMBL document CHEMBL3046527, “NAD+-dependent DNA ligase (Rv3014c) from M. tuberculosis: Strategies for inhibitor design” (Med Chem Res, 2008)

Target: DNA ligase A (Mycobacterium tuberculosis, UniProt P9WNV1)
Assay: Inhibition of Mycobacterium tuberculosis LigA

| SMILES | IC50 |
| --- | --- |
| CCN(CC)CCCC(C)Nc1ccnc2c1C=CC(Cl)C2 (configuration not stated) | 46 µM |
| CC1(C)O[C@H]2OC([C@H](CCO)NCCCN[C@H](CCO)C3O[C@@H]4OC(C)(C)O[C@@H]4[C@H]3OCc3ccccc3)[C@H](OCc3ccccc3)[C@H]2O1 (some centres not stated) | 46.2 µM |
